Several values for one entry are separate records, joined by “and”; a condition that tells them apart may be missing. Identical values can stand only once.
Legend:
[1] = system: IL-6; assay: Human IL-6 immunoassay on SH-SY5Y cell supernatant; format: cell-based; conditions: medium from cells treated with AAT vs 6-OHDA induced, not significant
Description: Cells were treated for 24 hours with the neurotoxin 6-hydroxydopamine (6-OHDA, Sigma Aldrich 162957) at 50, 100 μM concentrations alone or in combination with AAT 25 μM (AAT plasma derived, Sigma Aldrich batch A9024). Cells treated with AAT alone or in combination with 6-OHDA for 24 hours, were then incubated with fresh AAT for additional 24 hours. Control cells were treated with PBS.
Human 11-6 immunoassay (R&D D6050) was performed on cells supernatant. Briefly, 40000 cells were plated in 24-well plate and treated the day after as described in paragraph “Cells and treatment”. At the end of the treatment, cells were washed with PBS and incubated with 2% FBS medium for 24 hours, then cell culture supernatants were collected and centrifuged to remove particulates. Assay procedure was performed as described by manufactured instructions, on standard and samples duplicates. Absorbance was measured at 450 nm using SpectraMax iD3 Microplate Reader. A standard curve was prepared from seven IL-6 standard dilutions and IL-6 sample concentrations determined.

[2] = system: CIDP mice; assay: Sciatic nerve histology, CIDP mouse model; format: in vivo
Description: C57BL/6 mice were received at 8 weeks of age and housed under controlled conditions for the duration of the study. Three groups of 4 animals each were assigned to the following subcutaneous treatments twice daily at 7:00 AM and 7:00 PM for 2 weeks, from 20 to 35 days after the start of disease induction: • Wild type (WT) mice receiving the vehicle, 0.9% NaCl (positive control) • CIDP mice receiving the vehicle, 0.9% NaCl (negative control) • CIDP mice receiving human AAT (AAT), 50 mg/kg per injection
Disease induction consisted in subcutaneous injection of mouse sciatic nerve homogenate in phosphate buffer saline (PBS)+Freund's adjuvant mixture at 10 mL/kg. For each treatment, 3 different body sites injections were performed. Control mice also received three subcutaneous injections of PBS+Freund's adjuvant at the same 3 different body sites.
On the first (Day 20) and last (Day 35) day of treatment, the neuromuscular and performance of animals was tested with a rotarod test, grip test and a sensory test using the Von Frey filament test, as well as sciatic nerve electrophysiology test. After the last treatment at Day 35, these tests were repeated, animals were sacrificed and the left sciatic nerve was sampled for histological evaluation of the number and size of […].

[3] = system: CMT1A mice B6.Cg-Tg(PMP22)C3Fbas/J; assay: Grip strength, CMT mice treated with AAT 180 mg/kg/day sc; format: in vivo, mouse; conditions: for Grip strength, group Mean: 8 animals
Description: CMT MOUSE MODEL: Non-humanized CMT1A mice B6.Cg-Tg(PMP22)C3Fbas/J (three copies of the PMP22 gene), three groups of 8 animals each.
DOSAGE: 180 mg/kg/day non-clinical grade AAT (Sigma)
ADMINISTRATION: Subcutaneous (SC) (bi-daily injection of 90 mg/kg)
Animals were received at 6 weeks of age and housed under controlled conditions for the duration of the study. The study comprised two groups of 8 transgenic mice (CMT mice) each and one group of 8 age matched wild type (WT) C57B16 mice, serving as positive control. […]
(§1) The efficacy parameters included: • neuromuscular performance (rotarod latency to fall and grip strength test), • sciatic nerve electrophysiology (CMAP amplitude and NCV) • cytokine (IL-6 and TNFα), as well as NfL analysis • sciatic nerve histology (number of axons and axonal diameter),
After the last treatment on Day 15, these tests were repeated. Animals were then left untreated for 2 additional weeks to evaluate the duration of the treatment effect. Following the 2-week treatment-free period until 12 weeks of age (Day 30), the behavioural and electrophysiological tests were repeated.

[4] = system: plasma TNFα; assay: Plasma TNFα, CMT mice treated with AAT 180 mg/kg/day sc; format: in vivo, mouse
Description: Animals were received at 6 weeks of age and housed under controlled conditions for the duration of the study. The study comprised two groups of 8 transgenic mice (CMT mice) each and one group of 8 age matched wild type (WT) C57B16 mice, serving as positive control. Animals were assigned to the following subcutaneous treatments twice daily at 7:00 AM and 7:00 PM for 2 weeks, starting from 8 weeks and up to 10 weeks of age: • Wild-type (WT, no disease) mice receiving vehicle, 0.9% NaCl (positive control) • CMT1A mice receiving vehicle, 0.9% NaCl (negative control) • CMT1A mice receiving AAT at 90 mg/kg per injection (daily dose 180 mg/kg)
as §1
As supportive information for the mode of action of AAT in CMT, plasma concentration of interleukin 6 (IL-6) and TNFα were measured at Day 1 (8 weeks), Day 15 (10 weeks) and Day 30 (12 weeks). At the same timepoints, plasma levels of the biomarker of nerve damage, NfL were determined.

[5] = CIDP mice, day 35, AAT 50 mg/kg sc twice daily
[6] = 8 weeks old (baseline, Day 1), CMT1A + AAT
[7] = 10 weeks old (Day 15, after 2 weeks AAT 90 mg/kg sc twice daily)
[8] = 12 weeks old (Day 30, after 2-week treatment-free period)
[9] = baseline (6 weeks old), CMT + hAAT, individual animal

alpha1-antitrypsin (AAT) protein
IL-6 in cell supernatant [1]: less concentration | axonal diameter compared to the CIDP+vehicle treated group ([2]; CIDP + AAT, day 35): significant increase | g-ratio compared to the CIDP+vehicle treated group ([2]; CIDP + AAT, day 35): decrease | total number of axons per surface compared to the vehicle treated group ([2]; CIDP + AAT, day 35): Slight but non-significant increase | Sciatic nerve histology, Axonal diameter (Mean ± SEM) [2, 5]: 3.82 ± 0.09 μm | Sciatic nerve histology, Axons/100 μm^2 (Mean ± SEM) [2, 5]: 26.00 ± 2.10 | Sciatic nerve histology, g-ratio (Mean ± SEM) [2, 5]: 0.715 ± 0.008 | Grip strength (Mean ± SD) [3, 6]: 3.35 ± 0.27 newtons | Grip strength, group Mean ([3]; 8 weeks old, CMT + hAAT 180 mg/kg/day SC): 4.81 NEWTONS | Grip strength (Mean ± SD) [3, 7]: 5.47 ± 1.11 newtons | grip strength vs untreated CMT animals ([3]; 12 weeks of age, after 2-week treatment-free period, P<0.05): significantly higher | Grip strength (Mean ± SD) [3, 8]: 3.87 ± 0.36 newtons | grip strength vs CMT mice not treated with AAT ([3]; CMT mice, AAT 90 mg/kg sc twice a day, 8 to 10 weeks of age, end of treatment): significant increase | Grip strength, group Mean ([3]; baseline (6 weeks old), CMT + hAAT): 5.54 NEWTONS | Grip strength, Mean/animal [3, 9]: 4.96 NEWTONS and 4.77 NEWTONS and 6.79 NEWTONS and 6.72 NEWTONS and 6.41 NEWTONS and 4.74 NEWTONS and 4.27 NEWTONS and 5.68 NEWTONS | Grip strength, set 1 [3, 9]: 6.56 NEWTONS and 5.62 NEWTONS and 7.24 NEWTONS and 5.90 NEWTONS and 4.97 NEWTONS and 4.35 NEWTONS and 6.08 NEWTONS and 6.51 NEWTONS | Grip strength, set 2 [3, 9]: 3.79 NEWTONS and 4.00 NEWTONS and 7.19 NEWTONS and 8.88 NEWTONS and 7.60 NEWTONS and 6.25 NEWTONS and 2.61 NEWTONS and 3.97 NEWTONS | Grip strength, set 3 [3, 9]: 4.52 NEWTONS and 4.69 NEWTONS and 5.93 NEWTONS and 5.37 NEWTONS and 6.66 NEWTONS and 3.63 NEWTONS and 4.13 NEWTONS and 6.57 NEWTONS | Plasma TNFα (Mean ± SD) [4, 6]: 9.80 ± 2.25 pg/mL | Plasma TNF-α concentration, group Mean ([4]; 8 weeks old, CMT + hAAT 180 mg/kg/day SC, 8 animals): 6.94 pg/mL | Plasma TNF-α concentration ([4]; 8 weeks old, CMT + hAAT 180 mg/kg/day SC, individual animal): 7.04 pg/mL and 7.89 pg/mL and 7.91 pg/mL and 5.44 pg/mL and 7.90 pg/mL and 5.34 pg/mL and 8.02 pg/mL and 5.95 pg/mL | Plasma TNFα (Mean ± SD) [4, 7]: 6.55 ± 2.11 pg/mL | positive effect on TNFα plasma levels ([4]; 12 weeks of age, after 2-week treatment-free period): remained significant | Plasma TNFα (Mean ± SD) [4, 8]: 11.61 ± 1.00 pg/mL | plasma levels of TNFα ([4]; CMT mice, AAT 90 mg/kg sc twice a day, P<0.0001): reduced

From patent US20260028390A1, “ALPHA1-ANTITRYPSIN FOR USE IN THE TREATMENT OF DISEASES OR DISORDERS OF THE NERVOUS SYSTEM SUCH AS CHRONIC INFLAMMATORY DEMYELINATING POLYNEUROPATHY” (Ageronix SA, priority 2022, published 2026)
